{"source": "patent US20090181986A1", "about": "“SUBSTITUTED HETEROCYCLIC COMPOUNDS” (priority 2007, published 2009)", "key": {"[1]": {"biological_target": "hERG potassium channel (Homo sapiens, UniProt Q12809)", "sequence (Q12809 whole entry)": "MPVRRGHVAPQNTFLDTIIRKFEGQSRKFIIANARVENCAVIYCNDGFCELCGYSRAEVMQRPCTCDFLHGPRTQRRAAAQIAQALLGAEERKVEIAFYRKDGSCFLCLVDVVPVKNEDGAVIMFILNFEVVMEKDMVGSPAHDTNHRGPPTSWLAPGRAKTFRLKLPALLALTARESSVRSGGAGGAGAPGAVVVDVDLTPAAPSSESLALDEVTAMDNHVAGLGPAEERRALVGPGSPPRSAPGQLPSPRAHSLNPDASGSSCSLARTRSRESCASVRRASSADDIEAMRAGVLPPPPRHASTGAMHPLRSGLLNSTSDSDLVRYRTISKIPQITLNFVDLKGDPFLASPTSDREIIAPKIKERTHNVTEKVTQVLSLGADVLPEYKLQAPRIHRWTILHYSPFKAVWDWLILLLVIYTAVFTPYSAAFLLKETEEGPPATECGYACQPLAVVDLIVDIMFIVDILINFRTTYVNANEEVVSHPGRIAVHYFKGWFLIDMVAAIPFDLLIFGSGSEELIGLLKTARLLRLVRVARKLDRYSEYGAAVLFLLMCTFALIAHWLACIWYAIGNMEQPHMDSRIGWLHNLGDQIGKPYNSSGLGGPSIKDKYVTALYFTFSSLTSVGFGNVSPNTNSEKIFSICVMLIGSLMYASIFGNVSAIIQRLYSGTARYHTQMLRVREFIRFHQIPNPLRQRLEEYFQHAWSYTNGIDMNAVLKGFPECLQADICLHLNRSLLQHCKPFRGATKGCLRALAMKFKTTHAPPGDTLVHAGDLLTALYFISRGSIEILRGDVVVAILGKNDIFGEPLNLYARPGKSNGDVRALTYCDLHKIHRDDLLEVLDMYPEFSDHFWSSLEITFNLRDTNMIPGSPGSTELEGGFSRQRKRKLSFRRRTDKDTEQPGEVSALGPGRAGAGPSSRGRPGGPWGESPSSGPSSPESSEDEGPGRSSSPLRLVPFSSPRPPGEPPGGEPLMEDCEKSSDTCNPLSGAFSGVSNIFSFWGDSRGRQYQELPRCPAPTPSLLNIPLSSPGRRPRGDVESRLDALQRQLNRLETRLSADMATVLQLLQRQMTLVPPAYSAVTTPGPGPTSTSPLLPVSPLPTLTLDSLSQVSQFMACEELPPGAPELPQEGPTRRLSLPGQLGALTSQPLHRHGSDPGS", "experiment": "hERG screening assay (PatchXpress patch clamp, CHO cells)", "quoted_text": "Compounds were screened to test their activity in blocking the hERG potassium channel. The hERG channel is heterologously expressed in a CHO (Chinese Hamster Ovary) cell line. Cells are maintained with standard tissue culture procedures and stable channel expression is maintained with 500 μg/ml G418 in the culture medium. Cells are harvested for testing on the PatchXpress automated patch clamp with Acctumax (Innovative Cell Technologies, San Diego, Calif.) to isolate single cells.\nThe following solutions are used for electrophysiological recordings. The external solution contains: 2 mM CaCl2; 2 mM MgCl2; 4 mM KCl; 150 mM NaCl; 10 mM Glucose; 10 mM HEPES (pH 7.4 with 1M NaOH, osmolarity).\nhERG channels are activated when the voltage is stepped to +20 mV from the −80 mV holding potential (see FIG. 3). During a 5 second step at +20 mV, the channels activate and then largely inactivate, so the currents are relatively small. Upon returning to −50 mV from +20 mV, hERG currents transiently become much larger as inactivation is rapidly removed and then the channel closes. The first step to −50 mV for 300 ms is used as a baseline for measuring the peak amplitude during the step to −50 mV after channel activation. The peak current at −50 mV is measured both under control conditions and after addition of compound.\nAll compounds are prepared as 10 mM DMSO stocks in glass vials. Stock solutions are mixed by vigorous vortexing and sonication for about 2 minutes at room temperature. For testing, compounds are diluted in glass vials using an intermediate dilution step in pure DMSO and then further diluted to working concentrations in external solution. Dilutions are prepared no longer than 20 minutes before use.\nAfter achieving the whole-cell configuration, cells are monitored for 90 seconds to assess stability and washed with external solution for 66 seconds. The voltage protocol described above is then applied to the cells every 12 seconds and throughout the whole procedure. Only cells with stable recording parameters and meeting specified health criteria are allowed to enter the compound addition procedure.\nExternal solution containing 0.1% DMSO (vehicle) is applied to the cells first to establish the control peak current amplitude. After allowing the current to stabilize for 3 to 5 minutes, 1 μM and then 10 μM test compounds are applied. Each compound concentration is added 4 times and cells are kept in test solution until the effect of the compound reaches steady state or for a maximum of 12 minutes. […] Washout in the external solution compartment is performed until the recovery of the current reaches steady state. Data are analyzed using DataXpress, Clampfit (Molecular Devices, Inc., Sunnyvale) and Origin 7 (Originlab Corp.)"}, "[2]": {"test_system": "L-type calcium channel", "experiment": "L-type calcium channel activity well-plate assay (IMR-32 cells, Ca-4 dye, FlexStation)", "type": "cell-based, human", "procedure,_shortened": "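IMR-32 human neuroblastoma cells seeded overnight at 200,000 cells/well, loaded 1 h at 37° with Ca-4 dye in HBSS/20 mM HEPES pH 7.4 with 2 mM probenecid.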"}, "[3]": {"biological_target": "T1, wild-type human cardiac sodium channel, hNav1.5 (Homo sapiens, UniProt Q14524)", "T1 sequence (Q14524 whole entry)": "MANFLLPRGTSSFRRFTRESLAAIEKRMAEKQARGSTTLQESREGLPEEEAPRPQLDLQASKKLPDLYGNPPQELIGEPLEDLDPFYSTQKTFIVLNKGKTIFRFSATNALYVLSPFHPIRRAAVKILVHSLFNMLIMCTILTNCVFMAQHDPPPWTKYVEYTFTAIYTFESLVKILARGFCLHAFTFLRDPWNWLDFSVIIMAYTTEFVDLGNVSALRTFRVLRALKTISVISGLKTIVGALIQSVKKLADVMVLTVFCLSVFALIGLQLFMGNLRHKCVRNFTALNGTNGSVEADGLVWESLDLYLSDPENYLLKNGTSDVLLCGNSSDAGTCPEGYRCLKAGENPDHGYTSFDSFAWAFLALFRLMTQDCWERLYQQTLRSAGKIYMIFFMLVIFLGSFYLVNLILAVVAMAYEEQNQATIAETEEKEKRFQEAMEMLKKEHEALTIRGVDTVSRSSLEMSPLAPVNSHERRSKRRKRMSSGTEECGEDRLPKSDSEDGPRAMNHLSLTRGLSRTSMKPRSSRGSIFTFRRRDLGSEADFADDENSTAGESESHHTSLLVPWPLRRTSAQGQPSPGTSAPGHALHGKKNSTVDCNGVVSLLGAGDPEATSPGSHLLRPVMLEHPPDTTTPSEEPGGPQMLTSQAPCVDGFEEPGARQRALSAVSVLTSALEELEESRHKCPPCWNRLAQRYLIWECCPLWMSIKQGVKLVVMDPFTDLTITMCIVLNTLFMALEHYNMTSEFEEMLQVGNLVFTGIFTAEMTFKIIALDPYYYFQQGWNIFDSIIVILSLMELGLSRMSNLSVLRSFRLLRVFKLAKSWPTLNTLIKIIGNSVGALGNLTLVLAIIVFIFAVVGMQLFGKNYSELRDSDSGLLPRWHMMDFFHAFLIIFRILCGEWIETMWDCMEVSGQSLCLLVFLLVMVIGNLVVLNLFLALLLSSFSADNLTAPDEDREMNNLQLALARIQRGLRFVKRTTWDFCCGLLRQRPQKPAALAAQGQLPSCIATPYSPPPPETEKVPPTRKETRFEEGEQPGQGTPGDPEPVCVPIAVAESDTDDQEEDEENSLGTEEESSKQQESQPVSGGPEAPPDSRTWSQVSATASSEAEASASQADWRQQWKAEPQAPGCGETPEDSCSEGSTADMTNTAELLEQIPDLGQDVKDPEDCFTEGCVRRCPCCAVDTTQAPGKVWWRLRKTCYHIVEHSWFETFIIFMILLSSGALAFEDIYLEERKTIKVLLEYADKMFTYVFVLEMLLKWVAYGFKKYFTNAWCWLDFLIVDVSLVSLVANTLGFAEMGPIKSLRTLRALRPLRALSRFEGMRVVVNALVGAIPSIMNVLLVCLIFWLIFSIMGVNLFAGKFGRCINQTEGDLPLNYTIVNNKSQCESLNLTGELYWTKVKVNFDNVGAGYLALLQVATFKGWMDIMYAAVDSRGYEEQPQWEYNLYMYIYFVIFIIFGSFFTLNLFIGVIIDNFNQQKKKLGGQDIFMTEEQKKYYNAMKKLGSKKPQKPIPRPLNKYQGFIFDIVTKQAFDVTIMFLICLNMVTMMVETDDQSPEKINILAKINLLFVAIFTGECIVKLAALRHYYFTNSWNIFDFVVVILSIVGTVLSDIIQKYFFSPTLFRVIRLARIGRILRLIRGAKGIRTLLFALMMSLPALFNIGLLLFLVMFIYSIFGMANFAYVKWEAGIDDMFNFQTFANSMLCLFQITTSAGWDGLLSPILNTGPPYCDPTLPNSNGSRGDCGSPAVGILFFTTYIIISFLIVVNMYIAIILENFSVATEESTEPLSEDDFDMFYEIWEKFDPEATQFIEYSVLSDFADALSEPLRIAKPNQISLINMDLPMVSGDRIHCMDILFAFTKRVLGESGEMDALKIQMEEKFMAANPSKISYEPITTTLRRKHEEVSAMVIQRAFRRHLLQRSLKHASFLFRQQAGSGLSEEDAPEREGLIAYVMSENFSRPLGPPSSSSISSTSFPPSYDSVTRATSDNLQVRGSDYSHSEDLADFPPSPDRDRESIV", "experiment": "Late INa screening assay (PatchXpress whole cell patch clamp, late current generated with Tefluthrin or ATX II)", "type": "cell-based", "details": "for inhibition at 10 µM: test compound at 10 μM, read-out: Late INa % blk; for effect on late sodium current: late INa assay, compounds tested at 10 μM", "description": "(§1) The late sodium current (Late INa) and peak sodium current (Peak INa) assays are performed on an automated electrophysiology platform, PatchXpress 7000A (MDS Analytical Technologies, Sunnyvale, Calif.), which uses the whole cell patch clump technique to measure currents through the cell membrane of up to 16 cells at a time. The assay uses an HEK293 (human embryonic kidney) cell line heterologously expressing the wild-type human cardiac sodium channel, hNav1.5, purchased from Millipore (Billerica, Mass.). No beta subunits were coexpressed with the Na channel alpha subunit. […] Experiments are carried out at 24-27° C.\n(§2) For both the Late INa and Peak INa assays, series resistance compensation is set to 50% and whole-cell compensation is performed automatically. […] Currents through open sodium channels are automatically recorded and stored in the DataXpress2 database (MDS Analytical Technologies, Sunnyvale, Calif.). Analysis is performed using DataXpress2 analysis software and data are compiled in Excel.\nCompound stocks are routinely made in glass vials to 10 mM in dimethyl sulfoxide (DMSO). In some cases, when compounds are not soluble in DMSO, they are made in 100% ethanol. Stocks are sonicated as necessary. The extracellular solution for screening Late INa is composed of: 140 mM NaCl, 4 mM KCl, 1.8 mM CaCl2, 0.75 mM MgCl2, and 5 mM HEPES with pH adjusted to 7.4 using NaOH. The extracellular solution for screening Peak INa is composed of: 20 mM NaCl, 120 mM N-methyl-D glucamine, 4 mM KCl, 1.8 mM CaCl2, 0.75 mM MgCl2, and 5 mM HEPES with pH adjusted to 7.4 using HCl. The intracellular solution used to perfuse the inside of the cells for both the Late INa and Peak INa assays contains: 120 mM CsF, […], 5 mM EGTA, 5 mM HEPES and pH adjusted to 7.4 with CsOH. […] The ONa extracellular solution used at the end of each experiment for the Late INa and Peak INa assays to measure baseline current contains: 140 mM N-methyl-D-glucamine; 4 mM KCl; 1.8 mM CaCl2; 0.75 mM MgCl2; 5 mM HEPES and pH was adjusted to 7.4 with HCl.\nFor the Late INa assay, sodium channels are activated every 10 seconds (0.1 Hz) by depolarizing the cell membrane to −20 mV for 250 milliseconds (ms) from a holding potential of −120 mV.\nAll compounds are tested to determine their activity in blocking the late sodium current. Late INa current is generated by adding 10 μM Tefluthrin (pyrethroid) to the extracellular solution while recording Na currents. […] For some experiments, 50 nM ATX II (sea anemone toxin), another late INa activator, was used to generate the late component. […] Baseline current in the absence of Na^+ ions is measured at the end of each experiment (after two additions of 0 Na solution—see above) and is used to calculate the percent block by compound."}, "[4]": {"biological_target": "T1, wild-type human cardiac sodium channel, hNav1.5", "experiment": "Peak INa screening assay (tonic block and use-dependent block)", "type": "cell-based", "details": "test compound at 10 μM", "description": "as §1, §2\nCompound stocks are routinely made in glass vials to 10 mM in dimethyl sulfoxide (DMSO). In some cases, when compounds are not soluble in DMSO, they are made in 100% ethanol. Stocks are sonicated as necessary. The extracellular solution for screening Late INa is composed of: 140 mM NaCl, 4 mM KCl, 1.8 mM CaCl2, 0.75 mM MgCl2, and 5 mM HEPES with pH adjusted to 7.4 using NaOH. The extracellular solution for screening Peak INa is composed of: 20 mM NaCl, 120 mM N-methyl-D glucamine, 4 mM KCl, 1.8 mM CaCl2, 0.75 mM MgCl2, and 5 mM HEPES with pH adjusted to 7.4 using HCl. The intracellular solution used to perfuse the inside of the cells for both the Late INa and Peak INa assays contains: 120 mM CsF, […], 5 mM EGTA, 5 mM HEPES and pH adjusted to 7.4 with CsOH. Compounds are diluted in extracellular solution to […] in glass vials and then transferred to glass well plates before robotic addition to the cells. The ONa extracellular solution used at the end of each experiment for the Late INa and Peak INa assays to measure baseline current contains: 140 mM N-methyl-D-glucamine; 4 mM KCl; 1.8 mM CaCl2; 0.75 mM MgCl2; 5 mM HEPES and pH was adjusted to 7.4 with HCl.\nCompounds were also evaluated for their effect in several other assays, including their effect on Peak INa. In some cases, the effect on Peak INa was measured using data from the Late INa assay. […] Since the peak INa can be very large, introducing artifacts in the recording, the concentration of Na^+ in the bath is reduced to 20 mM and a nonpermeant cation is added to compensate for the Na^+ that was omitted from the standard extracellular solution (see above). The peak INa assay uses a holding potential of −100 mV and a 20 ms test pulse to 0 mV to activate the channel. As in the Late INa assay, stepping the voltage to 0 mV causes a rapid increase in negative Na current through hNav1.5 that inactivates within a few ms. No late INa activator is added for the peak assay.\nFor the separate peak INa assay, both tonic (TB) block and use-dependent (UDB) block of peak inward sodium current by 10 μM compound are determined. TB is block of the channel in the resting state, before the channel opens. TB is simulated in this assay by stimulating the channel to open at a low frequency (0.1 Hz). This is done in order to measure the control current amplitude and monitor current rundown, enabling correction for rundown in the calculation of percent block for TB."}, "[5]": {"details": "tonic block, read-out: Tonic Peak INa % blk"}, "[6]": {"details": "use-dependent block, read-out: UDB Peak INa % blk"}}, "data": [{"smiles": "CCOC(=O)C1=C(C)NC(C)=C(C(=O)OCC)C1c1ccc2c(c1)OCCO2", "note": "[PT-109, diethyl 4-(2,3-dihydrobenzo[b][1,4]dioxin-6-yl)-2,6-dimethyl-1,4-dihydropyridine-3,5-dicarboxylate]", "values": [{"measurement": "hERG Patch Clamp hERG % blk (1 μM test cmpd)", "setting": "[1]", "value": 16, "unit": "%"}, {"measurement": "hERG Patch Clamp hERG % blk (10 μM test cmpd)", "setting": "[1]", "value": 38.5, "unit": "%"}, {"measurement": "CaL Plate Assay % blk (1 μM test cmpd)", "setting": "[2]", "value": 4, "unit": "%"}, {"measurement": "CaL Plate Assay % blk (10 μM test cmpd)", "setting": "[2]", "value": 53, "unit": "%"}, {"measurement": "inhibition at 10 µM", "setting": "[3]", "value": 76.5, "unit": "%"}]}, {"smiles": "CC1=C(C(=O)OCc2ccccc2)C(c2sccc2Br)n2nnnc2N1", "note": "(stereo not drawn) [PT-401, benzyl 7-(3-bromothiophen-2-yl)-5-methyl-4,7-dihydrotetrazolo[1,5-a]pyrimidine-6-carboxylate]", "values": [{"measurement": "inhibition at 10 µM", "setting": "[4]; [5]", "value": 34.6, "unit": "%"}, {"measurement": "inhibition at 10 µM", "setting": "[4]; [6]", "value": 4.8, "unit": "%"}]}, {"smiles": "CCOC(=O)C1=C(C)Nc2nnnn2C1c1ccccc1I", "note": "(stereo not drawn) [PT-492, ethyl 7-(2-iodophenyl)-5-methyl-4,7-dihydrotetrazolo[1,5-a]pyrimidine-6-carboxylate]", "values": [{"measurement": "inhibition at 10 µM", "setting": "[4]; [5]", "value": 20.6, "unit": "%"}, {"measurement": "inhibition at 10 µM", "setting": "[4]; [6]", "value": 4.8, "unit": "%"}]}, {"smiles": "CC1=C(C(=O)OCc2ccccc2)[C@@H](c2ccccc2-c2ccc(C)o2)n2nnnc2N1", "note": "[PT-235, (R)-benzyl 5-methyl-7-(2-(5-methylfuran-2-yl)phenyl)-4,7-dihydrotetrazolo[1,5-a]pyrimidine-6-carboxylate]", "values": [{"measurement": "hERG Patch Clamp hERG % blk (1 μM test cmpd)", "setting": "[1]", "value": 10, "unit": "%"}, {"measurement": "hERG Patch Clamp hERG % blk (10 μM test cmpd)", "setting": "[1]", "value": 41.5, "unit": "%"}, {"measurement": "inhibition at 10 µM", "setting": "[4]; [5]", "value": 8.8, "unit": "%"}, {"measurement": "inhibition at 10 µM", "setting": "[4]; [6]", "value": 4.5, "unit": "%"}]}, {"smiles": "COc1ccc(C2C(C(=O)OCc3ccccc3)=C(C)Nc3nnnn32)c(C#N)c1", "note": "(stereo not drawn) [PT-389, benzyl 7-(2-cyano-4-methoxyphenyl)-5-methyl-4,7-dihydrotetrazolo[1,5-a]pyrimidine-6-carboxylate]", "values": [{"measurement": "hERG Patch Clamp hERG % blk (1 μM test cmpd)", "setting": "[1]", "value": 23.5, "unit": "%"}, {"measurement": "hERG Patch Clamp hERG % blk (10 μM test cmpd)", "setting": "[1]", "value": 69, "unit": "%"}, {"measurement": "inhibition at 10 µM", "setting": "[4]; [5]", "value": 13.9, "unit": "%"}, {"measurement": "inhibition at 10 µM", "setting": "[4]; [6]", "value": 2.9, "unit": "%"}]}, {"smiles": "CCOC(=O)C1=C(C)Nc2c(c(C)nn2C)C1c1cccc2ccccc12", "note": "(stereo not drawn) [PT-440, ethyl 1,3,6-trimethyl-4-(naphthalen-1-yl)-4,7-dihydro-1H-pyrazolo[3,4-b]pyridine-5-carboxylate]", "values": [{"measurement": "hERG Patch Clamp hERG % blk (1 μM test cmpd)", "setting": "[1]", "value": 12, "unit": "%"}, {"measurement": "hERG Patch Clamp hERG % blk (10 μM test cmpd)", "setting": "[1]", "value": 48, "unit": "%"}, {"measurement": "inhibition at 10 µM", "setting": "[4]; [5]", "value": 2.8, "unit": "%"}, {"measurement": "inhibition at 10 µM", "setting": "[4]; [6]", "value": 4.3, "unit": "%"}]}, {"smiles": "CC1=C(C(=O)OCc2ccccc2)C(c2ccccc2-c2ccc(NS(C)(=O)=O)cc2)n2nnnc2N1", "note": "(stereo not drawn) [PT-530, benzyl 5-methyl-7-(4′-(methylsulfonamido)biphenyl-2-yl)-4,7-dihydrotetrazolo[1,5-a]pyrimidine-6-carboxylate]", "values": [{"measurement": "hERG Patch Clamp hERG % blk (1 μM test cmpd)", "setting": "[1]", "value": 13, "unit": "%"}, {"measurement": "hERG Patch Clamp hERG % blk (10 μM test cmpd)", "setting": "[1]", "value": 48, "unit": "%"}, {"measurement": "inhibition at 10 µM", "setting": "[3]", "value": 88.3, "unit": "%"}]}, {"smiles": "CC1=C(C(=O)OCc2ccccc2)C(c2cccc3ccccc23)n2nnnc2N1Cc1nnn[nH]1", "note": "(stereo not drawn) [PT-326, benzyl 4-((1H-tetrazol-5-yl)methyl)-5-methyl-7-(naphthalen-1-yl)-4,7-dihydrotetrazolo[1,5-a]pyrimidine-6-carboxylate]", "values": [{"measurement": "inhibition at 10 µM", "setting": "[4]; [5]", "value": 32.2, "unit": "%"}, {"measurement": "inhibition at 10 µM", "setting": "[4]; [6]", "value": 11.6, "unit": "%"}]}, {"smiles": "CC1=C(C(=O)N2CCC(c3ccccc3)CC2)C(c2ccsc2)C2=C(CCCC2=O)N1", "note": "(stereo not drawn) [PT-163, 2-methyl-3-(4-phenylpiperidine-1-carbonyl)-4-(thiophen-3-yl)-4,6,7,8-tetrahydroquinolin-5(1H)-one]", "values": [{"measurement": "hERG Patch Clamp hERG % blk (1 μM test cmpd)", "setting": "[1]", "value": 15, "unit": "%"}, {"measurement": "hERG Patch Clamp hERG % blk (10 μM test cmpd)", "setting": "[1]", "value": 53.5, "unit": "%"}, {"measurement": "CaL Plate Assay % blk (1 μM test cmpd)", "setting": "[2]", "value": 5, "unit": "%"}, {"measurement": "CaL Plate Assay % blk (10 μM test cmpd)", "setting": "[2]", "value": 17, "unit": "%"}, {"measurement": "effect on late sodium current", "setting": "[3]", "value": "potentiated late sodium current"}]}, {"smiles": "CC1=C(C(=O)N2CCN(c3ccccc3)CC2)C(c2ccc3ccccc3c2)C2=C(CCCC2=O)N1", "note": "(stereo not drawn) [PT-165, 2-methyl-4-(naphthalen-2-yl)-3-(4-phenylpiperazine-1-carbonyl)-4,6,7,8-tetrahydroquinolin-5(1H)-one]", "values": [{"measurement": "hERG Patch Clamp hERG % blk (1 μM test cmpd)", "setting": "[1]", "value": 30.5, "unit": "%"}, {"measurement": "hERG Patch Clamp hERG % blk (10 μM test cmpd)", "setting": "[1]", "value": 64.5, "unit": "%"}, {"measurement": "CaL Plate Assay % blk (1 μM test cmpd)", "setting": "[2]", "value": 0, "unit": "%"}, {"measurement": "CaL Plate Assay % blk (10 μM test cmpd)", "setting": "[2]", "value": 2, "unit": "%"}, {"measurement": "effect on late sodium current", "setting": "[3]", "value": "potentiated late sodium current"}]}]}
